From ChEMBL document CHEMBL6134826, “Cross-subclass metallo-β-lactamase inhibitors: From structural and catalytic commonalities guiding design” (Eur J Med Chem, 2025)

Columns and labels:
[1] = Binding affinity to IMP-1 (unknown origin) assessed as inhibition constant; parameters: species or system Bacteria
[2] = Inhibition of IMP-1 (unknown origin); parameters: species or system Bacteria
[3] = molecular target: T1, Metallo-beta-lactamase type 2 (Bacteria, UniProt C7C422); experiment: Inhibition of NDM-1 (unknown origin) using nitrocefin as substrate by colorimetric assay
[4] = Inhibition of CphA (unknown origin); parameters: species or system Bacteria
[5] = Inhibition of L1 (unknown origin); parameters: species or system Bacteria
[6] = Binding affinity to Sfh-1 (unknown origin) assessed as inhibition constant; parameters: species or system Bacteria
[7] = Binding affinity to VIM-2 (unknown origin) assessed as inhibition constant; parameters: species or system Bacteria
[8] = molecular target: T1, Metallo-beta-lactamase type 2; experiment: Binding affinity to NDM-1 (unknown origin) assessed as inhibition constant
[9] = Inhibition of Sfh-1 (unknown origin); parameters: species or system Bacteria
[10] = Binding affinity to L1 (unknown origin) assessed as inhibition constant; parameters: species or system Bacteria
[11] = Inhibition of BcII (unknown origin); parameters: species or system Bacteria
[12] = Inhibition of ImiS (unknown origin); parameters: species or system Bacteria
Bacteria [13] = experiment: Inhibition of L1 (unknown origin) at 100 uM relative to control
[14] = molecular target: Metallo-beta-lactamase type 2 (Bacteria) (UniProt C7C422); experiment: Inhibition of NDM-1 (unknown origin) at 100 uM relative to control
Bacteria [15] = experiment: Inhibition of IMP-1 (unknown origin) at 100 uM relative to control
[16] = Inhibition of recombinant VIM-2 (unknown origin); parameters: species or system Bacteria
[17] = Binding affinity to BcII (unknown origin) assessed as inhibition constant; parameters: species or system Bacteria
[18] = molecular target: T1, Metallo-beta-lactamase type 2; experiment: Inhibition of NDM-1 (unknown origin)using fluorescent cephalosporin as substrate preincubated for 10 mins followed by substrate addition by fluorescence based assay
[19] = molecular target: T1, Metallo-beta-lactamase type 2; experiment: Inhibition of NDM-1 (unknown origin)

T1 sequence (C7C422 whole entry): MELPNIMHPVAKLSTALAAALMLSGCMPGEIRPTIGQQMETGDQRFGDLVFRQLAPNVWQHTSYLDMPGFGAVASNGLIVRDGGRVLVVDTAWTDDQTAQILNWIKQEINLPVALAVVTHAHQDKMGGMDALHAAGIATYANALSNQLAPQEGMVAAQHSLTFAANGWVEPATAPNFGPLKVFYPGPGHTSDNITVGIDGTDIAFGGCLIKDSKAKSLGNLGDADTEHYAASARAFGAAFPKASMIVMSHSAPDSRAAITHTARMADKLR
Sequence of Metallo-beta-lactamase type 2 (Bacteria) (C7C422 whole entry): as above

Structure (SMILES): CNCc1ccc([C@@H]2C[C@@H](SC3=C(C(=O)O)N4C(=O)[C@H]([C@@H](C)O)[C@H]4[C@H]3C)CN2)cc1
- Ki [1]: 0.18 µM

Structure (SMILES): O=c1c2ccccc2[se]n1-c1ccccc1 [EBSELEN]
- IC50 [2]: 1.59 µM
- IC50 [3]: 0.072 µM

Structure (SMILES): O=C(O)c1cccc2c1OB(O)C(SCc1ccccc1)C2 (centres undefined)
- IC50 [4]: 0.501 µM
- IC50 [5]: 5.01 µM

Structure (SMILES): C[C@]1(Cn2ccnn2)[C@H](C(=O)O)N2C(=O)C[C@H]2S1(=O)=O [TAZOBACTAM]
- Ki [6]: 62.2 µM
- Ki [7]: 128 µM

Structure (SMILES): CCOC(=O)[C@]1(CS)N[C@H](C(=O)O)C(C)(C)S1
- Ki [8]: 8 µM
- IC50 [9]: 100 µM
- IC50 [5]: 28 µM

Structure (SMILES): SCC1SCC2Nc3ccccc3N21 (centres undefined)
- Ki [8]: 77 µM
- IC50 [9]: 1.4 µM
- IC50 [5]: 0.62 µM

Structure (SMILES): CC1(C)S[C@H]2CS[C@H](CS)N2[C@@H]1C(=O)O
- IC50 [9]: 0.36 µM
- Ki [7]: 6 µM
- Ki [10]: 11 µM

Structure (SMILES): CC1(C)[C@H](C(=O)O)N2C(=O)[C@H](CS)[C@H]2S1(=O)=O
- IC50 [11]: 12 µM
- IC50 [5]: 0.3 µM

Structure (SMILES): O=C(CCn1[se]c2ccccc2c1=O)Oc1ccc2ccc(=O)oc2c1
- IC50 [2]: 0.97 µM
- IC50 [12]: 12.5 µM
- IC50 [3]: 0.025 µM

Structure (SMILES): O=C(O)[C@@H]1CS[C@H]2CS[C@H](CS)N21
- IC50 [9]: 0.26 µM
- Ki [7]: 2.9 µM
- Ki [10]: 12 µM

Structure (SMILES): O=C(O)C(=O)CBr [BROMOPYRUVATE]
- inhibition (Bacteria [13]): 33.3%
- IC50 [3]: 2.57 µM
- inhibition [14]: 90.9%

Structure (SMILES): CC(=O)OC1C2CCC(C(=O)O)N2P1(=O)O (centres undefined)
- inhibition (Bacteria [15]): 70%
- inhibition (Bacteria [13]): 70%

Structure (SMILES): NCCN[C@H]1CC[C@H](CC(=O)N[C@H]2Cc3cccc(C(=O)O)c3OB2O)CC1
- IC50 [16]: 0.005 µM
- IC50 [4]: 2.51 µM
- IC50 [5]: > 10 µM

Structure (SMILES): C[C@H](NC(=O)CCS)C(=O)O
- Ki [17]: 5.6 µM
- Ki [1]: 68 µM
- Ki [10]: 6.5 µM

Structure (SMILES): CCN(CC)c1ccc2cc(C(=O)NCCC[Se]C#N)c(=O)oc2c1
- IC50 [2]: 0.12 µM
- IC50 [12]: 0.56 µM
- IC50 [3]: 0.081 µM

Structure (SMILES): O=C(CCn1[se]c2ccccc2c1=O)ON1C(=O)CCC1=O
- IC50 [2]: 0.53 µM
- IC50 [12]: 7.65 µM
- IC50 [3]: 0.045 µM

Structure (SMILES): CC(C)c1cccc2c(-c3ccc(CS(C)(=O)=O)c(Cl)c3)c(C(=O)O)[nH]c12
- IC50 [4]: 1.26 µM
- IC50 [5]: 0.0501 µM
- IC50 [18]: 0.00126 µM

Structure (SMILES): CC(C)c1cccc2c(-c3cc(Cl)cc(Cl)c3)c(C(=O)O)[nH]c12
- IC50 [4]: 0.63 µM
- IC50 [5]: 0.501 µM

Structure (SMILES): O=C(N[C@@H](C(=O)O)c1ccc(Cn2cnnn2)s1)[C@@H](S)CCc1ccccc1
- IC50 [2]: 0.09 µM
- IC50 [5]: 0.5 µM

Structure (SMILES): CC(C)c1cccc2c(-c3ccc(Cn4cncn4)cc3)c(C(=O)O)[nH]c12
- IC50 [4]: 0.398 µM
- IC50 [5]: 5.01 µM
- IC50 [18]: 0.00158 µM

Structure (SMILES): CC1(C)[C@H](C(=O)O)N2C(=O)[C@@H](CS)[C@H]2S1(=O)=O
- IC50 [11]: 1.4 µM
- IC50 [5]: 0.1 µM

Structure (SMILES): CCOC(=O)[C@]1(CS)N[C@H](C(=O)O)CS1
- Ki [8]: 0.44 µM
- IC50 [9]: 1.3 µM
- IC50 [5]: 20 µM

Structure (SMILES): CCN(CC)C(=S)SSC(=S)N(CC)CC [DISULFIRAM]
- IC50 [2]: 2.9 µM
- IC50 [12]: 3.6 µM
- IC50 [3]: 0.13 µM

Structure (SMILES): CCN(CC)c1ccc2c(-c3ccccc3C(=O)OCCn3[se]c4ccccc4c3=O)c3ccc(N(CC)CC)cc3[o+]c2c1
- IC50 [2]: 0.46 µM
- IC50 [12]: 8.62 µM
- IC50 [3]: 0.016 µM

Structure (SMILES): O=C(O)c1cccc2c1OB(O)[C@@H](NC(=O)C1CCCCC1)C2
- IC50 [19]: 2.04 µM
- IC50 [4]: 4.42 µM
